We go through two compounds from patent publication US20260209294A1, “USE OF RECOMBINANT PROTEIN IN PREPARING DRUG FOR INHIBITING ANEURYSM” (HUAZHONG UNIVERSITY OF SCIENCE AND TECHNOLOGY, priority 2022, published 2026).

The test system of one experiment is VSMC cells. Nature of the experiment: VSMC incubated in vitro with TGF-β1 or pirfenidone (PFD): Western blot, ELISA, RT-PCR. Type of experiment: cell-based. As to conditions: for level of AGGF1: Western blot, treatment 2 days and 4 days. The procedure: The VSMCs are starved for 12 hours prior to stimulation with TGF-β1. […] Normalized to β-actin. *, P<0.05; **, P<0.01; ***, P<0.001; n≥4/group for the study.
In FIG. 11, we used VSMC in vitro incubated with TGF-β1 and pirfenidone (PFD). […] In FIG. 12, we used Aggf1 systemic knockout mice for experiments.
A general note: In western blotting, separated proteins are transferred to a membrane and probed.

In experiment [1] the test system is TAC-induced carotid artery dilation, remodeling, and inflammation. Briefly: Pirfenidone in TAC model in WT and Aggf1+/- mice. The experiment is classed as in vivo. As to conditions: for level of AGGF1 in the RCA / level of p-ERK1/2 in the RCA / level of p-Smad3 in the RCA: Western blot; for expansion of the right carotid artery / ratio of the flow velocity between right/left carotid: 3 weeks after TAC; for right carotid artery inflammation (MCP1 and CD68) / right carotid artery vascular remodeling (H&E staining, Sirius red and αSMA): after TAC. An excerpt:
The bar graphs below show the intimal thickness (1st graph), the adventitia thickness (2nd graph), the total carotid artery wall thickness (3rd graph), the medial cell density (4th graph), and the adventitia cell density (5th graph). […] The bar graphs on the right show the percentage of the positive area for the respective immunostaining quantification. […] The GAPDH serves as a loading control. *, P<0.05; **, P<0.01; ***, P<0.001; n=5/group for mouse studies, other sample sizes n=4/group. In FIG. 11, we used VSMC in vitro incubated with TGF-β1 and pirfenidone (PFD). […] In FIG. 12, we used Aggf1 systemic knockout mice for experiments.

Where [2] appears, read: Aggf1 heterozygous knockout mice (Aggf1+/-).

For the compound `Cc1ccc(=O)n(-c2ccccc2)c1` [PFD, pirfenidone], the “mRNA levels of Tgfb1 and Tgfb2” value in the experiment with VSMC cells (RT-PCR, after 2 days) is “no effect”. Also, in the experiment on VSMC cells (Western blot 2 and 4 days, ELISA 2 days), the “synthesis of the mature TGF-β1” value is given as “inhibited”. Further, in the experiment with VSMC cells, the “level of AGGF1” value is on record as “increased”. In addition, in experiment [1] (Aggf1+/- mice after TAC), the “level of AGGF1 in the RCA” value is on record as “did not have this effect”, the “level of p-ERK1/2 in the RCA” value is “did not have this effect” and the “level of p-Smad3 in the RCA” value is “did not have this effect”. For the same compound, in experiment [1] (setting [2]), the “expansion of the right carotid artery” value is on record as “did not possess such effects”; the “ratio of the flow velocity between right/left carotid” value is recorded as “did not possess such effects”; the “right carotid artery inflammation (MCP1 and CD68)” value is “did not possess such effects”; the “right carotid artery vascular remodeling (H&E staining, Sirius red and αSMA)” value is reported as “did not possess such effects”. In experiment [1] (WT mice after TAC), the “level of AGGF1 in the RCA” value was “significantly increase”, the “level of p-ERK1/2 in the RCA” value is on record as “reduce” and the “level of p-Smad3 in the RCA” value is recorded as “reduce”. In addition, in experiment [1] (WT mice), the “expansion of the right carotid artery” value was “significantly reduce”; the “ratio of the flow velocity between right/left carotid” value is “significantly reduce”; the “right carotid artery inflammation (MCP1 and CD68)” value was “significantly reduce”; the “right carotid artery vascular remodeling (H&E staining, Sirius red and αSMA)” value is reported as “significantly reduce”.

Turning to “TGF-β1: TGF-β1 used to stimulate VSMC cells in vitro”, the “level of AGGF1” value in the experiment on VSMC cells is given as “inhibit”.
